Assay results taken from ChEMBL document CHEMBL1201862, “PubChem BioAssay data set” (2004).
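All cell lines were grown in 96-well plates and treated with compound for 48 hours. GI50 = concentration required for 50% inhibition of growth.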 The source made the active and inactive calls. Cut-off read from the data, not from the text of the source: active = GI50 up to about 1.1 µM and inactive = higher.

Legend:
Assay in all cases: NCI-60 cell line screen, 48 h
RPMI-8226 = system: RPMI-8226
DU-145 = system: DU-145
786-0 = system: 786-0
LOX IMVI = system: LOX IMVI
SF-295 = system: SF-295
OVCAR-3 = system: OVCAR-3
UO-31 = system: UO-31
TK-10 = system: TK-10
HCT-15 = system: HCT-15
KM12 = system: KM12
CAKI-1 = system: CAKI-1
SK-MEL-28 = system: SK-MEL-28
NCI-H522 = system: NCI-H522
MDA-N = system: MDA-N
OVCAR-8 = system: OVCAR-8
UACC-257 = system: UACC-257
M14 = system: M14
NCI-H226 = system: NCI-H226
MDA-MB-435 = system: MDA-MB-435
COLO 205 = system: COLO 205

SMILES | GI50 (RPMI-8226) | GI50 (DU-145) | GI50 (786-0) | GI50 (LOX IMVI) | GI50 (SF-295) | GI50 (OVCAR-3) | GI50 (UO-31) | GI50 (TK-10) | GI50 (HCT-15) [µM] | GI50 (KM12) | GI50 (CAKI-1) | GI50 (SK-MEL-28) | GI50 (NCI-H522) | GI50 (MDA-N) | GI50 (OVCAR-8) | GI50 (UACC-257) | GI50 (M14) | GI50 (NCI-H226) | GI50 (MDA-MB-435) | GI50 (COLO 205)
C[C@H]1CC[C@@H]2[C@@H](C)[C@H]3[C@H](C[C@H]4[C@@H]5CC=C6C[C@@H](O)CC[C@]6(C)[C@H]5CC[C@]34C)N2C1 | 26.3 µM (inactive) | > 100 µM (inactive) | 30.4 µM (inactive) | 36.1 µM (inactive) | 40.6 µM (inactive) | > 100 µM (inactive) | 60.5 µM (inactive) | 33 µM (inactive) | > 100 | 30.3 µM (inactive) | 41.1 µM (inactive) | 47.1 µM (inactive) | 42.6 µM (inactive) | > 100 µM (inactive) | 32.5 µM (inactive) | 45.1 µM (inactive) | 74 µM (inactive) | 14.6 µM (inactive) | 89.7 µM (inactive) | 16.3 µM (inactive)
Cc1ccc(CC(Cc2ccccc2C)C(=O)O)c(C(=O)O)c1 (stereo not given) | > 100 µM (inactive) | > 100 µM (inactive) | > 100 µM (inactive) | > 100 µM (inactive) | > 100 µM (inactive) | > 100 µM (inactive) | > 100 µM (inactive) | > 100 µM (inactive) | > 100 | > 100 µM (inactive) | > 100 µM (inactive) | > 100 µM (inactive) | > 100 µM (inactive) | > 100 µM (inactive) | > 100 µM (inactive) | > 100 µM (inactive) | > 100 µM (inactive) | > 100 µM (inactive) | > 100 µM (inactive) | > 100 µM (inactive)
Cc1ccc(-c2c(C#N)c(S)n(NS(=O)(=O)c3ccc(C)cc3)c(=O)c2C#N)cc1 | 24.7 µM (inactive) | 41.8 µM (inactive) | 29 µM (inactive) | 27.2 µM (inactive) | 23.1 µM (inactive) | 34.7 µM (inactive) | 17.5 µM (inactive) | 19.8 µM (inactive) | 20.2 | 18 µM (inactive) | 28 µM (inactive) | 22 µM (inactive) | 19.1 µM (inactive) | 35.6 µM (inactive) | 21 µM (inactive) | 40 µM (inactive) | 31.3 µM (inactive) | 11.7 µM (inactive) | 22.3 µM (inactive) | 30 µM (inactive)
CC(C)(C)c1ccc(-c2nnc(-c3cc(C#N)cc(-c4nnc(-c5ccc(C(C)(C)C)cc5)o4)c3)o2)cc1 | > 100 µM (inactive) | > 100 µM (inactive) | 50.2 µM (inactive) | > 100 µM (inactive) | > 100 µM (inactive) | > 100 µM (inactive) | > 100 µM (inactive) | > 100 µM (inactive) | > 100 | > 100 µM (inactive) | > 100 µM (inactive) | > 100 µM (inactive) | > 100 µM (inactive) | > 100 µM (inactive) | > 100 µM (inactive) | > 100 µM (inactive) | > 100 µM (inactive) | > 100 µM (inactive) | > 100 µM (inactive) | > 100 µM (inactive)
O=[N+]([O-])c1c(O)c2nonc2c2nn(-c3ccccc3)nc12 | > 100 µM (inactive) | > 100 µM (inactive) | > 100 µM (inactive) | > 100 µM (inactive) | > 100 µM (inactive) | > 100 µM (inactive) | 43.2 µM (inactive) | 55.3 µM (inactive) | > 100 | > 100 µM (inactive) | > 100 µM (inactive) | > 100 µM (inactive) | 40 µM (inactive) | > 100 µM (inactive) | > 100 µM (inactive) | > 100 µM (inactive) | > 100 µM (inactive) | 6.85 µM (inactive) | > 100 µM (inactive) | > 100 µM (inactive)
